# Data taken from patent US20120071322A1, “Substituted Pyridopyrazines with a Herbicidal Action” (BASF SE, priority 2009, published 2012).
# Key:
# SETIT = test: greenhouse experiment, pre-emergence treatment; type: in vivo, Setaria italica; conditions: pre-emergence method, application rate 3.0 kg/ha, scale from 0 to 100
# Excerpt: The seeds of the test plants were sown separately for each species. For the pre-emergence treatment, the active compounds, which had been suspended or emulsified in water, were applied directly after sowing by means of finely distributing nozzles. The containers were irrigated gently to promote germination and growth and subsequently covered with transparent plastic hoods until the plants had rooted. This cover caused uniform germination of the test plants, unless this has been impaired by the active compounds. Depending on the species, the plants were kept at 10-25° C. or 20-35° C. The test period extended over 2 to 4 weeks. During this time, the plants were tended, and their response to the individual treatments was evaluated. Evaluation was carried out using a scale from 0 to 100. 100 means no emergence of the plants, or complete destruction of at least the aerial moieties, and 0 means no damage, or normal course of growth. A good herbicidal activity is given at values of at least 70 and a very good herbicidal activity is given at values of at least 85. [table]
# ABUTH = test: greenhouse experiment, post-emergence treatment; type: in vivo, Abutilon theophrasti; conditions: post-emergence method, application rate 3.0 kg/ha, scale from 0 to 100
# Excerpt: (§1) The seeds of the test plants were sown separately for each species. For the post-emergence treatment, the test plants were first grown to a height of 3 to 15 cm, depending on the plant habit, and then treated with the active compounds which had been suspended or emulsified in water. For this purpose, the test plants were either sown directly and grown in the same containers, or they were first grown separately as seedlings and transplanted into the test containers a few days prior to treatment. Depending on the species, the plants were kept at 10-25° C. or 20-35° C. The test period extended over 2 to 4 weeks. During this time, the plants were tended, and their response to the individual treatments was evaluated. Evaluation was carried out using a scale from 0 to 100. 100 means no emergence of the plants, or complete destruction of at least the aerial moieties, and 0 means no damage, or normal course of growth. A good herbicidal activity is given at values of at least 70 and a very good herbicidal activity is given at values of at least 85. [table]
# SETFA = test: greenhouse experiment, post-emergence treatment; type: in vivo, Setaria faberi; conditions: post-emergence method, application rate 3.0 kg/ha, scale from 0 to 100
# Excerpt: as §1
# AVEFA = test: greenhouse experiment, post-emergence treatment; type: in vivo, Avena fatua; conditions: post-emergence method, application rate 3.0 kg/ha, scale from 0 to 100
# Excerpt: as §1
structure (smiles),measurement,setting,value
"O=c1oc2nccnc2c(O)c1-c1ccccc1C(F)(F)F [example 1, 8-Hydroxy-7-(2-trifluoromethylphenyl)pyrano[2,3-b]pyrazin-6-one]",herbicidal activity against SETIT,SETIT,very good herbicidal activity (a very good herbicidal activity is given at values of at least 85)
same,herbicidal activity against ABUTH,ABUTH,good herbicidal activity (A good herbicidal activity is given at values of at least 70)
same,herbicidal activity against SETFA,SETFA,good herbicidal activity (A good herbicidal activity is given at values of at least 70)
same,herbicidal activity against AVEFA,AVEFA,good herbicidal activity (A good herbicidal activity is given at values of at least 70)
